Assay results: patent US20150306107A1, “SAA Derivative Compound Restores eNOS And Inhibits Oxidative Stress-Induced A Diseases In Hypoxia” (JANSFAT BIOTECHNOLOGY CO., LTD., priority 2014, published 2015)

Tests used:
eNOS = assay: Western blotting of eNOS expression in isolated rat pulmonary artery ring, short-term (acute) hypoxia or normoxia; format: cell-based
Method: In our in vitro short-term experiment, isolated rat pulmonary artery was grown under normoxia (20% O2) or hypoxia (1% O2) at 37° C. for 24 hrs as was previously done (Wu BN, et al. Int J Immunopathol Pharmacol 24:925, 2011). The heart weight and body weight ratio (HW/BW) of the rats treated with one of SPAAX-1, SPAAX-1 RX complex, Sildenafil or Sildenafil RX complex each measured on the 21st hypoxic day. All animal care and the experimental protocols of this study were approved by the Animal Care and Use Committee of the Kaohsiung Medical University. Male Wistar rats (200-250 g), provided by the National Laboratory Animal Breeding and Research Center (Taipei, Taiwan), were housed under constant temperature and controlled illumination. Food and water were available ad libitum.
(§1) Whole right lung tissues of hypoxia-treated and untreated rats were isolated and cut into small strips and placed into an extraction buffer (Tris 10 mM, pH 7.0, NaCl 140 mM, PMSF 2 mM, DTT 5 mM, NP-40 0.5%, pepstatin A 0.05 mM and leupeptin 0.2 mM) for protein extraction, and then centrifuged at 12,500 g for 30 min. To measure the expression levels of the proteins, the total proteins were extracted and Western blotting analysis was performed as described previously (Bivalacqua T J, et al., 2013, TJ PLoSONE 8: e68028. doi:10.1371/journal. pone.0068028). Briefly, the protein extract was boiled to a ratio of 4:1 with a sample buffer (Tris 100 mM, pH 6.8, glycerol 20%, SDS 4% and bromophenol blue 0.2%). Electrophoresis was performed using 10% SDS-polyacrylamide gel (2 hr, 100 V, 40 mA, […] protein per lane). Separated proteins were transferred to PVDF membranes treated with 5% fat-free milk powder to block the nonspecific IgGs (90 min, 100 V) and incubated for one hour with a specific protein antibody. The blot was then incubated with anti-mouse or anti-goat IgG linked to alkaline phosphatase (1:1000) for 1 hr. Immunoreactive bands were visualized using horseradish peroxidase-conjugated secondary antibodies and subsequent electrochemiluminescence (ECL) detection (GE Healthcare Bio-Sciences Corp., Piscataway, N.J., U.S.A.). Mouse or rabbit monoclonal antibody of eNOS (Upstate, N.Y., U.S.A.), sGCα (Sigma-Adrich, CA, U.S.A., sGCβ (Santa Cruz, Calif., U.S.A.), PDE-5A (BD Tansduction, San Jose, Calif., U.S.A.), PKG (Calbiochem, San Diego, Calif., U.S.A.) ROCKII (Upstate, N.Y., U.S.A.), RhoA (Santa Cruze, Calif., U.S.A.) and the loading control protein β-actin (Sigma-Adrich, MO, U.S.A.) were used in our Western blot analysis.
The Western blotting analysis measurements were performed as per lung tissue.

hypoxic rats [1] = assay: Hemodynamics of rats with hypoxic PAH, chronic hypoxia 21 days; format: in vivo, rat; settings: 5 mg/kg/day, p.o.
From the text: Int J Immunopathol Pharmacol 24:925, 2011). The heart weight and body weight ratio (HW/BW) of the rats treated with one of […] complex, Sildenafil or Sildenafil RX complex each measured on the 21st hypoxic day. All animal care and the experimental protocols of this study were approved by the Animal Care and Use Committee of the Kaohsiung Medical University. Male Wistar rats (200-250 g), provided by the National Laboratory Animal Breeding and Research Center (Taipei, Taiwan), were housed under constant temperature and controlled illumination. Food and water were available ad libitum. Normoxic rats were housed in room temperature air at normal atmospheric pressure (760 mm Hg). […] After completion of the exposure, tissues were prepared as indicated for contraction measurements, Western blot analysis, RNA extraction, or morphological analysis. […] Their breathing was normal and their body temperature was maintained at 37° C. […] The animals were then sacrificed by the administration of an overdose of urethane.

hypoxic rats [2] = assay: Right ventricular hypertrophy (RV/LV+S, right heart index) after long-term hypoxia; format: in vivo, rat
Method: The right lobes of the rat lungs and heart of six rats from each group were cut and soaked in formalin, dehydrated through graded alcohols, and embedded in paraffin wax. The lung tissue specimens fixed with formalin (4%) were embedded in paraffin for one hour at 4° C., cut into 4-μm-thick sections, and subjected to H&E staining before examination by light microscope. In our histopathological study, we measured the thickening of the medial wall of the small intrapulmonary arteries under an Eclipse TE2000-S (Nikon) microscope. In the heart tissues, the 4-μm-thick paraffin sections were cut from paraffin-embedded tissue blocks and de-paraffinized by immersion in xylene and rehydrated as previously described (Bivalacqua T J, et al., PLoSONE 8: e68028. doi:10.1371/journal. pone.0068028). The slices were then dyed with H&E. After gently rinsing with water, each slide was dehydrated through graded alcohols and finally soaked in xylene twice. The relative cardiac weight of right ventricle (RV)/[left ventricle (LV)+intraventricular septum (S)] ratio (i.e. right heart index) was calculated using right ventricle/left ventricle+septum (RV/LV+S). Measurements were obtained with Histolab software (Microvision Instruments, Evry, France).

VEGF [3] = assay: Immunohistochemistry of VEGF in pulmonary artery wall after long-term hypoxia; format: in vivo, rat
Method: For histological analysis, the rat pulmonary right lung sections or pulmonary artery were fixed in 4% formaldehyde for 1 hour at 4° C. After washing with phosphate buffer saline (PBS), they were sent for paraffin-embedded serial-sections. Serial cross-sections 7 μm thick were obtained from the cross-section of each pulmonary artery. Tissue sections were deparaffinized and rehydrated in an ethanol series. After tissue rehydration, endogenous peroxidase activity was quenched with 3% hydrogen peroxide for 30 minutes, and the sections were gently washed in PBS. Non-specific binding was blocked by incubation with 1% nonimmune bovine serum albumin (BSA) in PBS for 30 minutes at room temperature.
The tissue sections were incubated for 1 hour at room temperature with antibody against VEGF (ab1442, Millipore) or against eNOS (ab5589, Abcam) diluted 1:200 in PBS with 1% BSA. After being washed with PBS, the sections were incubated for 1 hour at room temperature with biotinylated goat antibody against rabbit (Dako, E-0432) and diluted 1:200 in PBS for 30 minutes at room temperature. The reaction was visualized by the addition of 3-3-diaminobenzidine (DAB) in a working solution of DAB substrate kit for peroxidase (vector lab, SK-4100) at room temperature for 5 minutes. The sections were washed in PBS for 10 minutes between each step, and counterstained with haematoxylin. […]

PKG = assay: Western blotting of PKG in lung tissue after long-term hypoxia; format: in vivo, rat; settings: hypoxia 21 days
Method: as §1, with “Mouse or rabbit monoclonal antibody of eNOS (Upstate, N.Y., U.S.A.), sGCα (Sigma-Adrich, CA, U.S.A., sGCβ (Santa Cruz, Calif., U.S.A.), PDE-5A (BD Tansduction, San Jose, Calif., U.S.A.), PKG (Calbiochem, San Diego, Calif., U.S.A.) ROCKII (Upstate, N.Y., U.S.A.), RhoA (Santa Cruze, Calif., U.S.A.) and the loading control protein β-actin (Sigma-Adrich, MO, U.S.A.) were used in our Western blot analysis.” left out

VEGF [4] = assay: Western blotting of VEGF in lung tissue after long-term hypoxia; format: in vivo, rat; settings: hypoxia 21 days; hypoxia 168.9±24.6%
NOx in lung tissue = settings: 21 days of hypoxia; control group 100%, hypoxia 59.8±3.7%
Method: All the rats were maintained on a 12-h light/12-hr dark cycle at 25±1° C. and were provided with food and water ad libitum. The normoxia group was housed in standard normoxic conditions and the other three treated groups were continuously housed in a hypoxic chamber (10% O2) for 21 days, except for a 30-min interval each day when the chamber was cleaned (FIG. 2). During which, a normoxic gas mixture was prepared from compressed air.
Production of NO, represented by its metabolite nitrate+nitrite (NOx), in lung tissue extracts was determined using the Griess method (Chung H H et al, Br J Pharmacol 160: 971, 2010; Vascular Pharmacology 53: 239, 2010). The three step Greiss test converts nitrate (NO3^−) into nitrite (NO2^−), resulting in a total NO2^− concentration from a standard calibration curve. The lung tissue extracts were homogenized, washed with PBS and incubated in a lysis buffer in addition to a protease inhibitor cocktail (Sigma, St. Louis, Mo.) to obtain the extracts of lung proteins. […] The samples were then incubated (25° C, 10 min) with Griess reagent [N-(1-naphthyl)-ethylenediamine: 0.2% (w/v), sulphanilamide: 2% (w/v), solubilized in double-distilled water: 95% and phosphoric acid: 5% (v/v)] and the absorbance measured at 540 nm. […]

SMILES: Cn1c(=O)c2c(ncn2CCN2CCN(c3ccccc3Cl)CC2)n(C)c1=O.O=C1O[C@H]([C@@H](O)CO)C(O)=C1O [SPAAX-1 ascorbate complex, 7-[2-[4-(2-chlorobenzene)piperazinyl]ethyl]-1,3-dimethylxanthine.ascorbic acid]
- eNOS in isolated hypoxic pulmonary artery (eNOS; hypoxia for 24 hrs, versus control level in normoxia, hypoxia 60±8.3%): 45±3.0%
- eNOS in acute hypoxia (eNOS; isolated pulmonary artery, acute hypoxia): restored
- expression of eNOS in isolated pulmonary artery ring (eNOS; normoxia for 24 hrs, 10 μm, versus non-treated controls): 117.9±9.1%
- BW (body weight) (hypoxic rats [1]): 28.8 ± 7.9 g
- MPAP (mean pulmonary arterial pressure) (hypoxic rats [1]; normoxia 12.9 ± 0.9, hypoxia 26.5 ± 0.6): 16.9±1.1 mmHg
- thickness of Right ventricular (hypoxic rats [2]; compared to the hypoxia state): reduced
- right heart index, RV/(LV+S) weight ratio (hypoxic rats [2]; hypoxia 21 days, relative to normoxia rats, hypoxia 184.6±0.7%): 117.4±2.6%
- VEGF immunostaining reactivity of pulmonary artery (VEGF [3]): reduced
- PKG expression in lung tissue (PKG): 85.0±12.9%
- VEGF expression in lung tissue (VEGF [4]): 120.9±22.2%
- levels of NOx in lung tissue (NOx in lung tissue): 86.3±17.3%
